Patent publication US20250108036A1, “COMPOSITIONS FOR REMOVING SENESCENT CELLS AND USES THEREOF” (LIFECEUTIX CO., LTD., priority 2021, published 2025)
Like-named read-outs stand apart in the source and are kept apart here.

Assays:
Type in all cases: cell-based, human
[1] = system: foreskin cells in which senescence was induced by doxorubicin; experiment: CellTiter-Glo cell viability of doxorubicin-induced senescent foreskin cells (Examples 1-2, 10, 11, 13; Tables 4, 63, 65); settings: for removal of senescent cells: excessive concentrations (1 or 20 mM)
Description: After 3 days, cell viability was measured using CellTiter-Glo Luminescent Cell Viability Assay (Promega) or light microscopy.

[2] = system: HMGN1; experiment: HMGN1 ELISA in culture medium of foreskin cells (Examples 10, 11; Tables 62, 63, 64); settings: Homo sapiens; for activity at 30 µM: read-out: HMGN1
[3] = system: A549; experiment: CellTiter-Glo cell viability of senescent A549 cancer cells (Example 12, Table 67); settings: for Survival (%): doxorubicin-induced senescent A549 cancer cells
[4] = system: HMGN1; experiment: HMGN1 ELISA in culture medium of A549 cancer cells (Example 12, Table 66); settings: Homo sapiens
[5] = Homo sapiens, A549, doxorubicin-induced senescent A549 cancer cells, 1.1 μM test compound, CellTiter-Glo, read-out: Survival (%)
[6] = Homo sapiens, A549, doxorubicin-induced senescent A549 cancer cells, 10 μM test compound, CellTiter-Glo, read-out: Survival (%)
[7] = Homo sapiens, A549, doxorubicin-induced senescent A549 cancer cells, 30 μM test compound, CellTiter-Glo, read-out: Survival (%)
[8] = Homo sapiens, 72 h, 1.1 μM test compound, doxorubicin-induced senescent foreskin cells, CellTiter-Glo, 0 μM = 100, read-out: Survival (%)
[9] = Homo sapiens, 72 h, 10 μM test compound, doxorubicin-induced senescent foreskin cells, CellTiter-Glo, 0 μM = 100, read-out: Survival (%)
[10] = Homo sapiens, 72 h, 30 μM test compound, doxorubicin-induced senescent foreskin cells, CellTiter-Glo, 0 μM = 100, read-out: Survival (%)
[11] = Homo sapiens, 72 h, […] test compound, doxorubicin-induced senescent foreskin cells, CellTiter-Glo, 0 μM = 100, read-out: Survival (%)
[12] = 30 μM test compound, doxorubicin-treated foreskin cells, DMSO = 100
[13] = A549, doxorubicin-induced senescent A549 cells, test compound 30 μM, ELISA, DMSO = 100, read-out: HMGN1 (amount of HMGN1 secreted in the cell culture)
[14] = Homo sapiens, A549, read-out: Survival (%)
[15] = A549, read-out: HMGN1 (amount of HMGN1 secreted in the cell culture)
[16] = Homo sapiens, 72 h, read-out: Survival (%)
[17] = […] test compound, doxorubicin-induced senescent foreskin cells, CellTiter-Glo, 0 μM = 100

OO [H2O2, reference compound]
removal of senescent cells [1]: hardly removed

CC1=CCC(c2cc(C(=O)C3CCC(c4ccc(C#N)cc4)CC3)c(C)cc2C2CCC2)=C1 (stereo not drawn) [LX-305]
activity at 90 µM ([2]; 90 μM test compound, doxorubicin-treated foreskin cells, DMSO = 100): 199% | viability at 1.1 µM [3, 5]: 99.2% | viability at 10 µM [3, 6]: 63.1% | viability at 30 µM [3, 7]: 41% | viability at 90 µM ([3]; Homo sapiens, A549, doxorubicin-induced senescent A549 cancer cells, 90 μM test compound, CellTiter-Glo, read-out: Survival (%)): 13.3% | activity at 90 µM ([4]; A549, doxorubicin-induced senescent A549 cells, test compound 90 μM, ELISA, DMSO = 100, read-out: HMGN1 (amount of HMGN1 secreted in the cell culture)): 227% | viability at 1.1 µM [1, 8]: 101% | viability at 10 µM [1, 9]: 91% | viability at 30 µM [1, 10]: 78% | viability at 90 µM ([1]; Homo sapiens, 72 h, 90 μM test compound, doxorubicin-induced senescent foreskin cells, CellTiter-Glo, 0 μM = 100, read-out: Survival (%)): 23.2% | viability at […] [1, 11]: 97.2%

O=C(O)Cn1nnc(-c2cc(N3CCC(Oc4cc(F)ccc4Br)CC3)no2)n1 [LX-309]
activity at 30 µM [2, 12]: 283% | viability at 1.1 µM [3, 5]: 100% | viability at 10 µM [3, 6]: 92.3% | viability at 30 µM [3, 7]: 28.1% | activity at 30 µM [4, 13]: 254% | viability at 1.1 µM [1, 8]: 52.3% | viability at 10 µM [1, 9]: 4.3% | viability at […] [1, 11]: 12.5%

O=C(C(C[N+](=O)[O-])=NO)N1CCN(C(c2ccc(Cl)cc2)c2ccc(Cl)cc2)CC1 [LX-403]
activity at 30 µM [2, 12]: 275% | viability at 1.1 µM [3, 5]: 40.2% | viability at 10 µM [3, 6]: 3.5% | activity at 30 µM [4, 13]: 320% | viability at 1.1 µM [1, 8]: 36.9% | viability at 10 µM [1, 9]: 6.5% | viability at […] [1, 11]: 15.5%

C[C@H]1Cc2c([nH]c3ccccc23)[C@H](c2ccc([Si](C)(C)C)cc2)N1C(=O)CCl [LX-412]
activity at 30 µM [2, 12]: 293% | viability at 1.1 µM [3, 5]: 4.8% | activity at 30 µM [4, 13]: 327% | viability at 1.1 µM [1, 8]: 0.3%

COCC1Cc2c([nH]c3ccccc23)[C@H](c2ccc(C(=O)NC3CC3)cc2F)N1C(=O)CCl (stereo partly drawn) [LX-413]
activity at 30 µM [2, 12]: 287% | viability at 1.1 µM [3, 5]: 10.1% | activity at 30 µM [4, 13]: 322% | viability at 1.1 µM [1, 8]: 0.5%

C#CCOc1ccc2[nH]c3c(c2c1)C[C@H](C(=O)OC)N(C(=O)CCl)[C@H]3c1ccc(C(=O)NC23CC4CC(CC(C4)C2)C3)cc1 [LX-415]
activity at 30 µM [2, 12]: 295% | viability at 1.1 µM [3, 5]: 15.6% | activity at 30 µM [4, 13]: 297% | viability at 1.1 µM [1, 8]: 0.4%

COC(=O)c1ccc([C@H]2c3ccc(OC)cc3C[C@H](C(=O)OC)N2C(=O)CCl)cc1 [LX-416]
activity at 30 µM [2, 12]: 293% | viability at 1.1 µM [3, 5]: 91.4% | activity at 30 µM [4, 13]: 315% | viability at 1.1 µM [1, 8]: 70.3% | viability at […] [1, 11]: 29.1%

COC(=O)c1ccc([C@@H]2c3ccc(OC)cc3C[C@H](C(=O)OC)N2C(=O)CCl)cc1 [LX-417]
activity at 30 µM [2, 12]: 294% | viability at 1.1 µM [3, 5]: 43.5% | activity at 30 µM [4, 13]: 347% | viability at 1.1 µM [1, 8]: 21.8%

C[C@@H]1Cc2c([nH]c3ccccc23)[C@H](c2ccc(F)cc2)[C@H]1C#N [LX-418]
activity at 30 µM [2, 12]: 284% | viability at 1.1 µM [3, 5]: 17.7% | activity at 30 µM [4, 13]: 286% | viability at 1.1 µM [1, 8]: 5.1%

C#CC(=O)N1[C@@H](CCCC)Cc2c([nH]c3ncccc23)[C@@H]1c1ccc(F)cc1 [LX-419]
activity at 30 µM [2, 12]: 274% | viability at 1.1 µM [3, 5]: 25.1% | activity at 30 µM [4, 13]: 313% | viability at 1.1 µM [1, 8]: 10.3%

CCCC[C@H]1Cc2c([nH]c3ccccc23)[C@H](c2ccc(C(=O)NC34CC5CC(CC(C5)C3)C4)cc2)N1C(=O)CCl [LX-420]
activity at 30 µM [2, 12]: 286% | viability at 1.1 µM [3, 5]: 10% | activity at 30 µM [4, 13]: 307% | viability at 1.1 µM [1, 8]: 0%

C#CC(=O)N1[C@@H](CCCC)Cc2cc(CO)ccc2[C@@H]1c1ccc(NC23CC4CC(CC(C4)C2)C3)cc1 [LX-421]
activity at 30 µM [2, 12]: 293% | viability at 1.1 µM [3, 5]: 3.8% | activity at 30 µM [4, 13]: 328% | viability at 1.1 µM [1, 8]: 3.4%

CCCC[C@H]1Cc2c([nH]c3ccccc23)[C@H](c2ccc(NC3CCC3)cc2)N1C(=O)C#C[Si](C)(C)C [LX-422]
activity at 30 µM [2]: 294% | viability at 1.1 µM [3, 14]: 4.8% | activity at 30 µM [4, 15]: 336% | viability at 1.1 µM [1, 16]: 1.8%

Cc1onc(C(=O)N2CCN(C(c3ccc(Cl)cc3)c3ccc(OCc4cn(CCOCCNc5cccc6c5C(=O)N(C5CCC(=O)NC5=O)C6=O)nn4)cc3)CC2)c1[N+](=O)[O-] (stereo not drawn) [LX-431, 4-((2-(2-(4-((4-((4-chlorophenyl)(4-(5-methyl-4-nitroisooxazol-3-carbonyl)piperazin-1-yl)methyl)phenoxy)methyl)-1H-1,2,3-triazol-1-yl)ethoxy)ethyl)amino)-2-(2,6-dioxopiperidin-3-yl)isoindolin-1,3-dione]
activity at 30 µM [2, 12]: 312% | viability at 1.1 µM [3, 5]: 94.6% | activity at 30 µM [4, 13]: 283% | viability at 1.1 µM [1, 8]: 89.5% | viability at […] [1, 11]: 12.6%

Cc1onc(C(=O)N2CCN(C(c3ccc(Cl)cc3)c3ccc(OCc4cn(CCOCCOCCNc5cccc6c5C(=O)N(C5CCC(=O)NC5=O)C6=O)nn4)cc3)CC2)c1[N+](=O)[O-] (stereo not drawn) [LX-432, 4-((2-(2-(2-(4-((4-((4-chlorophenyl)(4-(5-methyl-4-nitroisooxazol-3-carbonyl)piperazin-1-yl)methyl)phenoxy)methyl)-1H-1,2,3-triazol-1-yl)ethoxy)ethoxy)ethyl)amino)-2-(2,6-dioxopiperidin-3-yl)isoindolin-1,3-dione]
activity at 30 µM [2, 12]: 304% | viability at 1.1 µM [3, 5]: 97.1% | activity at 30 µM [4, 13]: 270% | viability at 1.1 µM [1, 8]: 84.2% | Survival (%) [1, 17]: 23.8%

Cc1onc(C(=O)N2CCN(C(c3ccc(Cl)cc3)c3ccc(OCc4cn(CCOCCOCCNc5cccc6c5C(=O)N(C5CCC(=O)NC5=O)C6=O)nn4)cc3)CC2)c1[N+](=O)[O-] (stereo not drawn) [LX-435, 4-((2-(2-(2-(4-((4-((4-chlorophenyl)(4-(5-methyl-4-nitroisooxazol-3-carbonyl)piperazin-1-yl)methyl)phenoxy)methyl)-1H-1,2,3-triazol-1-yl)ethoxy)ethoxy)ethyl)amino)-2-(2,6-dioxopiperidin-3-yl)isoindolin-1,3-dione]
Survival (%) ([3]; 1.1 μM test compound, CellTiter-Glo): 92.1% | Survival (%) ([1]; 1.1 μM test compound, doxorubicin-induced senescent foreskin cells, CellTiter-Glo, 0 μM = 100): 89.1% | Survival (%) [1, 17]: 5.9%

Cc1onc(C(=O)N2CCN(C(c3ccc(Cl)cc3)c3ccc(OCc4cn(CCOCCOCCOCCOCCNc5cccc6c5C(=O)N(C5CCC(=O)NC5=O)C6=O)nn4)cc3)CC2)c1[N+](=O)[O-] (stereo not drawn) [LX-436, 4-((14-(4-((4-((4-chlorophenyl)(4-(5-methyl-4-nitroisooxazol-3-carbonyl)piperazin-1-yl)methyl)phenoxy)methyl)-1H-1,2,3-triazol-1-yl)-3,6,9,12-tetraoxatetradecyl)amino)-2-(2,6-dioxopiperidin-3-yl)isoindolin-1,3-dione]
activity at 30 µM [2, 12]: 299% | viability at 1.1 µM [3, 5]: 99.5% | activity at 30 µM [4, 13]: 278% | viability at 1.1 µM [1, 8]: 84.4% | viability at […] [1, 11]: 3.8%

Cc1onc(C(=O)N2CCN(C(c3ccc(Cl)cc3)c3ccc(OCc4cn(CCNc5cccc6c5C(=O)N(C5CCC(=O)NC5=O)C6=O)nn4)cc3)CC2)c1[N+](=O)[O-] (stereo not drawn) [LX-437, 4-((2-(4-((4-((4-chlorophenyl)(4-(5-methyl-4-nitroisooxazol-3-carbonyl)piperazin-1-yl)methyl)phenoxy)methyl)-1H-1,2,3-triazol-1-yl)ethyl)amino)-2-(2,6-dioxopiperidin-3-yl)isoindolin-1,3-dione]
activity at 30 µM [2, 12]: 309% | viability at 1.1 µM [3, 5]: 93.6% | activity at 30 µM [4, 13]: 301% | viability at 1.1 µM [1, 8]: 86.2% | viability at […] [1, 11]: 10.9%

CN(C)CCn1cc(-c2ccc(F)cc2)c(-n2cccc2)n1 [LX-913]
viability at 1.1 µM [3, 5]: 95.1% | viability at 10 µM [3, 6]: 82.6% | Survival (%) ([3]; 30 μM test compound, CellTiter-Glo): 45.7% | Survival (%) ([3]; 90 μM test compound, CellTiter-Glo): 1.9% | Survival (%) ([1]; 30 μM test compound, doxorubicin-induced senescent foreskin cells, CellTiter-Glo, 0 μM = 100): 14.5% | viability at 1.1 µM [1, 8]: 97.7% | viability at 10 µM [1, 9]: 65% | viability at […] [1, 11]: 84.4%

C=C(CN(C)C)C(=O)c1ccc2c(c1)OCO2 [LX-919]
activity at 30 µM [2]: 321% | activity at 90 µM [4, 15]: 215%

COc1cc(OC)cc(N(CCNC(C)C)c2ccc3ncc(-c4cnn(C)c4)nc3c2)c1 [LX-1903, Erdafitinib, reference compound]
viability at 1.1 µM [3, 5]: 93.1% | viability at 10 µM [3, 6]: 12.3% | viability at 1.1 µM [1, 8]: 73.4% | viability at 10 µM [1, 9]: 22.4% | viability at 30 µM [1, 10]: 11.8% | viability at […] [1, 11]: 50.3%

CCCC\C=C/C=C/C=C\CCCCCCCC(=O)O [LX-2707, Punicic acid]
viability at 1.1 µM [3, 14]: 95.1% | viability at 10 µM [3, 14]: 64.8% | viability at 30 µM [3, 14]: 29% | viability at 1.1 µM [1, 16]: 95.1% | viability at 10 µM [1, 16]: 64.8% | viability at 30 µM [1, 16]: 29%

CC(=O)N[C@@H](CS)C(=O)O [NAC, N-acetyl cysteine, reference compound]
removal of senescent cells [1]: hardly removed
